The CheMixHub viscosity set

Test: xn = mol fraction of the nth substance listed

OCCO + CO
Details	viscosity [mPa·s]
293.15 K, 101.33 kPa, x1 = 0.0476	0.724
293.15 K, 101.33 kPa, x1 = 0.0598	0.766
293.15 K, 101.33 kPa, x1 = 0.0918	0.914
293.15 K, 101.33 kPa, x1 = 0.1023	0.918
293.15 K, 101.33 kPa, x1 = 0.1742	1.243
293.15 K, 101.33 kPa, x1 = 0.2098	1.409
293.15 K, 101.33 kPa, x1 = 0.3191	2.142
293.15 K, 101.33 kPa, x1 = 0.3538	2.413
293.15 K, 101.33 kPa, x1 = 0.4072	2.906
293.15 K, 101.33 kPa, x1 = 0.4225	3.085
293.15 K, 101.33 kPa, x1 = 0.4474	3.338
293.15 K, 101.33 kPa, x1 = 0.4889	3.824
293.15 K, 101.33 kPa, x1 = 0.5955	5.485
293.15 K, 101.33 kPa, x1 = 0.6932	7.481
293.15 K, 101.33 kPa, x1 = 0.836	11.43
293.15 K, 101.33 kPa, x1 = 0.859	12.3
298.15 K, 101 kPa, x1 = 0.1	0.8363
298.15 K, 101 kPa, x1 = 0.2	1.245
298.15 K, 101 kPa, x1 = 0.2969	1.998
298.15 K, 101 kPa, x1 = 0.3	1.795
298.15 K, 101 kPa, x1 = 0.34	2.045
298.15 K, 101 kPa, x1 = 0.4	2.562
298.15 K, 101 kPa, x1 = 0.5	3.602
298.15 K, 101 kPa, x1 = 0.6	5.022
298.15 K, 101 kPa, x1 = 0.7	6.964
298.15 K, 101 kPa, x1 = 0.8	9.561
298.15 K, 101 kPa, x1 = 0.9	13.09
308.15 K, 101 kPa, x1 = 0.1	0.7007
308.15 K, 101 kPa, x1 = 0.2	1.011
308.15 K, 101 kPa, x1 = 0.2969	1.634
308.15 K, 101 kPa, x1 = 0.3	1.442
308.15 K, 101 kPa, x1 = 0.4	2.032
308.15 K, 101 kPa, x1 = 0.5	2.818
308.15 K, 101 kPa, x1 = 0.6	3.883
308.15 K, 101 kPa, x1 = 0.7	5.269
308.15 K, 101 kPa, x1 = 0.8	6.952
308.15 K, 101 kPa, x1 = 0.9	9.251
318.15 K, 101 kPa, x1 = 0.1	0.6194
318.15 K, 101 kPa, x1 = 0.2	0.8557
318.15 K, 101 kPa, x1 = 0.2969	1.36
318.15 K, 101 kPa, x1 = 0.3	1.172
318.15 K, 101 kPa, x1 = 0.4	1.59
318.15 K, 101 kPa, x1 = 0.5	2.134
318.15 K, 101 kPa, x1 = 0.6	2.844
318.15 K, 101 kPa, x1 = 0.7	3.783
318.15 K, 101 kPa, x1 = 0.8	4.96
318.15 K, 101 kPa, x1 = 0.9	6.432

S=C=S + CO
298.15 K, 101.33 kPa
Details	viscosity [mPa·s]
x1 = 0.0437	0.5883
x1 = 0.0987	0.5838
x1 = 0.1521	0.5538
x1 = 0.2248	0.5669
x1 = 0.2969	0.57
x1 = 0.9488	0.4088

CCC(=O)c1ccccc1 + COCCO
viscosity [mPa·s], 101 kPa
Details	x1 = 0.0624	x1 = 0.1302	x1 = 0.2041	x1 = 0.2852	x1 = 0.3744	x1 = 0.4731	x1 = 0.5827	x1 = 0.7054	x1 = 0.8434
303.15 K	1.568	1.562	1.557	1.551	1.545	1.54	1.534	1.529	1.523
308.15 K	1.394	1.398	1.403	1.408	1.414	1.422	1.431	1.442	1.454
313.15 K	1.234	1.246	1.259	1.274	1.292	1.312	1.334	1.359	1.388
318.15 K	1.108	1.125	1.145	1.167	1.192	1.22	1.251	1.287	1.328

NCc1ccccc1 + COc1ccccc1
303.15 K, 101 kPa
Details	viscosity [mPa·s]
x1 = 0.1	0.939
x1 = 0.2	0.975
x1 = 0.3	1.016
x1 = 0.3999	1.061
x1 = 0.4999	1.11
x1 = 0.5999	1.163
x1 = 0.7	1.22
x1 = 0.8	1.281
x1 = 0.9	1.346
